Results: article PMC1281266, “Impact of Polychlorinated Biphenyls Contamination on Estrogenic Activity in Human Male Serum” (Environmental Health Perspectives, 2005)
Entries after “also recorded” stand apart in the source; their conditions may differ.

How the values were obtained:
estrogen receptor (ER) [1] = molecular target: T1, estrogen receptor (ER) (Homo sapiens, UniProt P03372); test: ER-CALUX bioassay, antiestrogenicity: decrease in response to E2 in co-treated T47D.Luc cells; assay type: cell-based; conditions: for Effect of co-treatment on ER activation by E2, in words: co-treatment with 3 pM E2, Figure 2B; for Effect on E2-induced luciferase activity (antiestrogenicity), in words: 3 pM E2, T47D.Luc cells, Figure 3
T1 construct: using the human breast carcinoma T47D.Luc cell line, stably transfected with pEREtataLuc construct; host or cells: T47D.Luc (human breast carcinoma, stably transfected with the pEREtataLuc reporter)
Description: (§1) We determined estrogenic activities of 17 prevalent PCB congeners using the ER-CALUX bioassay (BioDetection Systems) using the human breast carcinoma T47D.Luc cell line, stably transfected with pEREtataLuc construct ([Legler et al. 1999]; [Machala et al. 2004]). ER-mediated activity was also determined in the cells treated with either total serum hexane/diethyl ether extracts or with a fraction of POPs obtained by a consequent sulfuric acid/silica fractionation. […] We determined cytotoxicity of extracts or individual PCBs by a neutral red uptake assay after a 24-hr exposure.

T47D.Luc cells = test: Neutral red uptake cytotoxicity assay, 24-hr exposure; assay type: cell-based, human; conditions: lowest concentration causing a significant decrease of cell viability; 24-hr exposure Neutral Red uptake
Description: as §1

estrogen receptor (ER) [2] = molecular target: T1, estrogen receptor (ER); test: ER-CALUX bioassay, estrogenic (ER-mediated) activity: induction of luciferase in T47D.Luc cells; assay type: cell-based; conditions: for ER-mediated activity (induction of ER-dependent luciferase activity), in words: individual congeners, micromolar concentrations, Figure 2A; for ER-activated activity IEF (induction equivalency factor): ratio between EC50 of E2 and the PCB concentration inducing the same level of luciferase activity
rat uterus = test system: rat uterus; parameters: method as in Arcaro et al. 1999; conditions: ref Arcaro et al. 1999; cited from earlier work
MCF-7 cells [3] = test system: MCF-7 cells; parameters: method as in Arcaro et al. 1999; conditions: ref Arcaro et al. 1999; cited from earlier work
BG1LucE2 cells = test system: BG1LucE2 cells; parameters: method as in Rogers and Denison 2000; conditions: 10 μM concentrations; ref Rogers and Denison 2000; cited from earlier work
MCF-7 cells [4] = test system: MCF-7 cells; parameters: method as in Bonenfeld-Jorgensen et al. 2001; conditions: ref Bonenfeld-Jorgensen et al. 2001; cited from earlier work
AhR = molecular target: T2, AhR (Rattus norvegicus, UniProt P41738); test: DR-CALUX luciferase reporter gene assay, dioxin-like activity; assay type: cell-based; conditions: data not shown
T2 construct: a luciferase reporter gene assay (DR-CALUX; BioDetection Systems, Amsterdam, the Netherlands) as described previously; rat hepatoma H4IIE.Luc by own knowledge of the DR-CALUX assay
T2 sequence (P41738 10-853): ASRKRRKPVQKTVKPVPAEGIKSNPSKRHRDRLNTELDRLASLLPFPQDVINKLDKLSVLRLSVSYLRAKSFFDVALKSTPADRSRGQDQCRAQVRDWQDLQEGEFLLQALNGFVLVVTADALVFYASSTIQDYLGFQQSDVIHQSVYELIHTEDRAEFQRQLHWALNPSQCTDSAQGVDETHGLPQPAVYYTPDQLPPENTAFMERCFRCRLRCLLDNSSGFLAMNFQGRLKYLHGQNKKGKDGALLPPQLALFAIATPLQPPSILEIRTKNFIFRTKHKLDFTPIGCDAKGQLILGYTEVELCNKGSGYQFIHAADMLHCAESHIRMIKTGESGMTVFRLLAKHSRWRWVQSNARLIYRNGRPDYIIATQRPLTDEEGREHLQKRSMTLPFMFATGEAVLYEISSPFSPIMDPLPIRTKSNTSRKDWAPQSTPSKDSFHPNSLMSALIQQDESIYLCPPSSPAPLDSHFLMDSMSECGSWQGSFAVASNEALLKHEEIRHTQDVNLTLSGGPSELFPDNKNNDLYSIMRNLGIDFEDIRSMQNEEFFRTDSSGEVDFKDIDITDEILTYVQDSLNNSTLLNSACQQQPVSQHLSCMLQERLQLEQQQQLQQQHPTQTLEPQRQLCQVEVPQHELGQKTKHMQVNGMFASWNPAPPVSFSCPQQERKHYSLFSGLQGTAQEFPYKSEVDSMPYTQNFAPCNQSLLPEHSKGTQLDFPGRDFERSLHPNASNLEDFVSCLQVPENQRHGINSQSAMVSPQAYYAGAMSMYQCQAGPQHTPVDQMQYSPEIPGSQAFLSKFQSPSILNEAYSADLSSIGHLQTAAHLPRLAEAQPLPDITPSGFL
Description: We determined the levels of cytochrome P450 (CYP) 1A1 and CYP1B1 mRNA in human peripheral lymphocytes by RNA extraction and a quantitative reverse-transcriptase-polymerase chain reaction (RT-PCR) method using TaqMan technology ([Canton et al. 2003]; [van Duursen et al. 2005]). The in vitro potencies of POPs present in serum to activate AhR were measured in sulfuric acid/silica-treated extracts by a luciferase reporter gene assay (DR-CALUX; BioDetection Systems, Amsterdam, the Netherlands) as described previously ([Murk et al. 1996]).

| SMILES | Cytotoxicity LOEC (T47D.Luc cells) [µM] | ER-mediated activity (induction of ER-dependent luciferase activity), in words (estrogen receptor (ER) [2]) | Effect on E2-induced luciferase activity (antiestrogenicity), in words (estrogen receptor (ER) [1]) | IC50 (estrogen receptor (ER) [1]) [µM] | other results |
| --- | --- | --- | --- | --- | --- |
| Clc1ccc(-c2ccc(Cl)cc2Cl)cc1 [PCB 28, 2,4,4′-Trichlorobiphenyl] | > 20 | significant ER-mediated activity; also recorded: induced the ER-mediated activity |  |  | Effect of co-treatment on ER activation by E2, in words (estrogen receptor (ER) [1]): potentiated; EC50 (estrogen receptor (ER) [2]): 8.23 µM |
| Clc1ccc(Cl)c(-c2cc(Cl)ccc2Cl)c1 [PCB 52, 2,2′,5,5′-Tetrachlorobiphenyl] | > 20 | significant ER-mediated activity; also recorded: induced the ER-mediated activity |  |  | Effect of co-treatment on ER activation by E2, in words (estrogen receptor (ER) [1]): potentiated; EC50 (estrogen receptor (ER) [2]): 9.52 µM |
| Clc1cccc(Cl)c1-c1c(Cl)cccc1Cl [PCB 54, 2,2′,6,6′-Tetrachlorobiphenyl] |  |  |  |  | Estrogenicity in the rat uterotrophic assay (rat uterus): estrogenic; Estrogenicity in the MCF-7 cell focus assay (MCF-7 cells [3]): estrogenic |
| Clc1ccc(-c2ccc(Cl)c(Cl)c2)c(Cl)c1 [PCB 66, 2,3′,4,4′-Tetrachlorobiphenyl] | > 40 | significant ER-mediated activity; also recorded: induced the ER-mediated activity |  |  | ER-mediated (estrogenic) activity in BG1LucE2 cells (BG1LucE2 cells): estrogenic; EC50 (estrogen receptor (ER) [2]): 24.3 µM |
| Clc1ccc(-c2cc(Cl)c(Cl)cc2Cl)cc1 [PCB 74, 2,4,4′,5-Tetrachlorobiphenyl] | > 40 | significant ER-mediated activity; also recorded: induced the ER-mediated activity |  |  | EC50 (estrogen receptor (ER) [2]): 17 µM |
| Clc1ccc(-c2ccc(Cl)c(Cl)c2)cc1Cl [PCB 77, 3,3′,4,4′-tetrachlorobiphenyl] |  |  |  |  | ER-mediated (estrogenic) activity in BG1LucE2 cells (BG1LucE2 cells): no ER-mediated activity |
| Clc1ccc(Cl)c(-c2c(Cl)ccc(Cl)c2Cl)c1 [PCB 95, 2,2′,3,5′,6-pentachlorobiphenyl] |  |  |  |  | ER-mediated (estrogenic) activity in BG1LucE2 cells (BG1LucE2 cells): estrogenic |
| Clc1ccc(-c2cc(Cl)c(Cl)cc2Cl)c(Cl)c1 [PCB 99, 2,2′,4,4′,5-Pentachlorobiphenyl] | > 40 | only partial ER agonists; also recorded: induced the ER-mediated activity |  |  | ER-activated activity IEC (induction equivalency concentration) (estrogen receptor (ER) [2]): WI (key: NI: no significant induction/inhibition; WI: weak induction/inhibition (< 50% of estradiol maximum induction); ER-activated activity IEF (induction equivalency factor) (estrogen receptor (ER) [2]): WI (weak induction/inhibition (< 50% of estradiol maximum induction) |
| Clc1ccc(-c2ccc(Cl)c(Cl)c2Cl)cc1Cl [PCB 105, 2,3,3′,4,4′-Pentachlorobiphenyl] | > 40 | only partial ER agonists; also recorded: induced the ER-mediated activity |  |  | ER-activated activity IEC (induction equivalency concentration) (estrogen receptor (ER) [2]): WI (key: NI: no significant induction/inhibition; WI: weak induction/inhibition (< 50% of estradiol maximum induction); ER-activated activity IEF (induction equivalency factor) (estrogen receptor (ER) [2]): WI (weak induction/inhibition (< 50% of estradiol maximum induction) |
| Clc1ccc(-c2cc(Cl)c(Cl)cc2Cl)cc1Cl [PCB 118, 2,3′,4,4′,5-Pentachlorobiphenyl] | > 20 |  |  |  |  |
| Clc1ccc(-c2cc(Cl)c(Cl)c(Cl)c2)cc1Cl [PCB 126, 3,3′,4,4′,5-Pentachlorobiphenyl] | > 40 |  | not elicited |  |  |
| Clc1cc(Cl)c(-c2ccc(Cl)c(Cl)c2Cl)cc1Cl [PCB 138, 2,2′,3,4,4′,5′-Hexachlorobiphenyl] | 20 | did not induce | significantly decreased | 10.1 | Antiestrogenic effects in reporter gene and cell proliferation MCF-7 assays (MCF-7 cells [4]): Antiestrogenic effects |
| Clc1ccc(-c2cc(Cl)c(Cl)c(Cl)c2Cl)cc1Cl [PCB 156, 2,3,3′,4,4′,5-Hexachlorobiphenyl] | 40 |  |  |  | Antiestrogenicity IhEF (inhibitory equivalency factor) (estrogen receptor (ER) [1]): WI (key: NI: no significant induction/inhibition; WI: weak induction/inhibition (< 50% of estradiol maximum induction; < 50% decrease in induction of 3 pM E2)); Antiestrogenicity IC50 (estrogen receptor (ER) [1]; 50% decrease in luciferase activity induced by 3 pM E2, T47D.Luc cells): WI (weak induction/inhibition (< 50% of estradiol maximum induction; < 50% decrease in induction of 3 pM E2)) |
| Clc1ccc(-c2cc(Cl)c(Cl)c(Cl)c2Cl)c(Cl)c1Cl [PCB 170, 2,2′,3,3′,4,4′,5-Heptachlorobiphenyl] | 25 | did not induce | significantly decreased | 16 |  |
| Clc1cc(Cl)c(-c2cc(Cl)c(Cl)c(Cl)c2Cl)cc1Cl [PCB 180, 2,2′,3,4,4′,5,5′-Heptachlorobiphenyl] | 20 | did not induce | significantly decreased | 9.32 | Antiestrogenic effects in reporter gene and cell proliferation MCF-7 assays (MCF-7 cells [4]): Antiestrogenic effects |
| Clc1cc(Cl)c(-c2c(Cl)c(Cl)cc(Cl)c2Cl)cc1Cl [PCB 187, 2,2′,3,4′,5,5′,6-Heptachlorobiphenyl] | 20 |  |  |  |  |
| Clc1cc(-c2cc(Cl)c(Cl)c(Cl)c2Cl)c(Cl)c(Cl)c1Cl [PCB 194, 2,2′,3,3′,4,4′,5,5′-Octachlorobiphenyl] | 25 | did not induce | significantly decreased | 14.1 |  |
| Clc1cc(Cl)c(-c2c(Cl)c(Cl)cc(Cl)c2Cl)c(Cl)c1Cl [PCB 199, 2,2′,3,3′,4′,5,6,6′-Octachlorobiphenyl] | 20 | did not induce | significantly decreased | 2.85 |  |
| Clc1cc(Cl)c(-c2c(Cl)c(Cl)c(Cl)c(Cl)c2Cl)cc1Cl [PCB 203, 2,2′,3,4,4′,5,5′,6-Octachlorobiphenyl] | 20 | did not induce | significantly decreased | 3.2 |  |
| ClC(Cl)=C(c1ccc(Cl)cc1)c1ccc(Cl)cc1 [p,p′-DDE] |  |  |  |  | Dioxin-like activity, in words (AhR): no dioxin-like activity; Estrogenic activity, in words (estrogen receptor (ER) [2]; data not shown): weak estrogenic |
